Each molecule was assayed against T1, recombinant human baculovirus-expressed GST-tagged FASN (Homo sapiens, UniProt P49327) (assay: FASN enzyme activity assay: fluorescence-based detection of CoA with CPM). Settings: 5 nM FASN, 150 μM NADPH, 10 μM acetyl-CoA, 25 μM malonyl-CoA, 90 minutes incubation.
T1 construct: GST; host or cells: baculovirus expression system (insect cells implied)
Format: biochemical
Excerpt: FASN Enzyme activity may be determined by detecting coenzyme A (CoA), a product of FASN-catalyzed synthesis of palmitate from acetyl-CoA and malonyl-CoA with NADPH as a cofactor. The assay is fluorescence-based and measures the interaction of free CoA with 7-diethylamino-3-(4′-malemimidylphenyl)-4-methylcoumarin (CPM; Life Technologies, CA) as described in Chung et al (2008). The coumarin derivative CPM contains a thiol-reactive maleimide that becomes fluorescent upon interaction with the sulfhydryl group of CoA.
For the example compounds described herein, the reaction was performed in 384-well low volume non-binding platews (Corning, NY) using recombinant human baculovirus-expressed GST-tagged FASN. The 20-μL assay mixture contained 50 mM HEPES (pH 7.5), 5 nM FASN, 150 μM NADPH (Sigma, St. Louis, MO), 10 μM acetyl-CoA (Sigma), 25 μM malonyl-CoA (Sigma) and test compound [diluted in dimethyl sulfoxide (DMSO); 0.5% DMSO final in assay after 100 nL addition]. See, Chung et al.; “A fluorescence-based thiol quantification assay for ultra-high-throughput screening for inhibitors of coenzyme A production,” Assay Drug Dev Tech 2008; 6:361-374.
The reaction was initiated by adding malonyl-CoA, followed by incubation for 90 minutes at […]. A stock solution of the CPM reagent was prepared in DMSO al 66 μM and stored at […]. To detect CoA produced in the FASN reaction, the CPM stock was diluted to 50 μM in 70% ethanol and added at 4 μL/well to the assay place. The reaction mixture was then incubated for 30 minutes. Fluorescence was measured using the EnVision™ 2102 multi-label plate reader (PerkinElmer, Waltham, MA) utilizing a general dual mirror, a 390 nm excitation filter and a 530 nm emission filter. Data analysis was performed using ActivityBase (IDBS, Guilford, UK). IC50 values were calculated by plotting the percent inhibition versus log 10 of the concentration of the compound, and fitting to the nonlinear regression sigmoidal dose-response (variable slope) equation in XLFit (IDBS).

T1 sequence (P49327 whole entry): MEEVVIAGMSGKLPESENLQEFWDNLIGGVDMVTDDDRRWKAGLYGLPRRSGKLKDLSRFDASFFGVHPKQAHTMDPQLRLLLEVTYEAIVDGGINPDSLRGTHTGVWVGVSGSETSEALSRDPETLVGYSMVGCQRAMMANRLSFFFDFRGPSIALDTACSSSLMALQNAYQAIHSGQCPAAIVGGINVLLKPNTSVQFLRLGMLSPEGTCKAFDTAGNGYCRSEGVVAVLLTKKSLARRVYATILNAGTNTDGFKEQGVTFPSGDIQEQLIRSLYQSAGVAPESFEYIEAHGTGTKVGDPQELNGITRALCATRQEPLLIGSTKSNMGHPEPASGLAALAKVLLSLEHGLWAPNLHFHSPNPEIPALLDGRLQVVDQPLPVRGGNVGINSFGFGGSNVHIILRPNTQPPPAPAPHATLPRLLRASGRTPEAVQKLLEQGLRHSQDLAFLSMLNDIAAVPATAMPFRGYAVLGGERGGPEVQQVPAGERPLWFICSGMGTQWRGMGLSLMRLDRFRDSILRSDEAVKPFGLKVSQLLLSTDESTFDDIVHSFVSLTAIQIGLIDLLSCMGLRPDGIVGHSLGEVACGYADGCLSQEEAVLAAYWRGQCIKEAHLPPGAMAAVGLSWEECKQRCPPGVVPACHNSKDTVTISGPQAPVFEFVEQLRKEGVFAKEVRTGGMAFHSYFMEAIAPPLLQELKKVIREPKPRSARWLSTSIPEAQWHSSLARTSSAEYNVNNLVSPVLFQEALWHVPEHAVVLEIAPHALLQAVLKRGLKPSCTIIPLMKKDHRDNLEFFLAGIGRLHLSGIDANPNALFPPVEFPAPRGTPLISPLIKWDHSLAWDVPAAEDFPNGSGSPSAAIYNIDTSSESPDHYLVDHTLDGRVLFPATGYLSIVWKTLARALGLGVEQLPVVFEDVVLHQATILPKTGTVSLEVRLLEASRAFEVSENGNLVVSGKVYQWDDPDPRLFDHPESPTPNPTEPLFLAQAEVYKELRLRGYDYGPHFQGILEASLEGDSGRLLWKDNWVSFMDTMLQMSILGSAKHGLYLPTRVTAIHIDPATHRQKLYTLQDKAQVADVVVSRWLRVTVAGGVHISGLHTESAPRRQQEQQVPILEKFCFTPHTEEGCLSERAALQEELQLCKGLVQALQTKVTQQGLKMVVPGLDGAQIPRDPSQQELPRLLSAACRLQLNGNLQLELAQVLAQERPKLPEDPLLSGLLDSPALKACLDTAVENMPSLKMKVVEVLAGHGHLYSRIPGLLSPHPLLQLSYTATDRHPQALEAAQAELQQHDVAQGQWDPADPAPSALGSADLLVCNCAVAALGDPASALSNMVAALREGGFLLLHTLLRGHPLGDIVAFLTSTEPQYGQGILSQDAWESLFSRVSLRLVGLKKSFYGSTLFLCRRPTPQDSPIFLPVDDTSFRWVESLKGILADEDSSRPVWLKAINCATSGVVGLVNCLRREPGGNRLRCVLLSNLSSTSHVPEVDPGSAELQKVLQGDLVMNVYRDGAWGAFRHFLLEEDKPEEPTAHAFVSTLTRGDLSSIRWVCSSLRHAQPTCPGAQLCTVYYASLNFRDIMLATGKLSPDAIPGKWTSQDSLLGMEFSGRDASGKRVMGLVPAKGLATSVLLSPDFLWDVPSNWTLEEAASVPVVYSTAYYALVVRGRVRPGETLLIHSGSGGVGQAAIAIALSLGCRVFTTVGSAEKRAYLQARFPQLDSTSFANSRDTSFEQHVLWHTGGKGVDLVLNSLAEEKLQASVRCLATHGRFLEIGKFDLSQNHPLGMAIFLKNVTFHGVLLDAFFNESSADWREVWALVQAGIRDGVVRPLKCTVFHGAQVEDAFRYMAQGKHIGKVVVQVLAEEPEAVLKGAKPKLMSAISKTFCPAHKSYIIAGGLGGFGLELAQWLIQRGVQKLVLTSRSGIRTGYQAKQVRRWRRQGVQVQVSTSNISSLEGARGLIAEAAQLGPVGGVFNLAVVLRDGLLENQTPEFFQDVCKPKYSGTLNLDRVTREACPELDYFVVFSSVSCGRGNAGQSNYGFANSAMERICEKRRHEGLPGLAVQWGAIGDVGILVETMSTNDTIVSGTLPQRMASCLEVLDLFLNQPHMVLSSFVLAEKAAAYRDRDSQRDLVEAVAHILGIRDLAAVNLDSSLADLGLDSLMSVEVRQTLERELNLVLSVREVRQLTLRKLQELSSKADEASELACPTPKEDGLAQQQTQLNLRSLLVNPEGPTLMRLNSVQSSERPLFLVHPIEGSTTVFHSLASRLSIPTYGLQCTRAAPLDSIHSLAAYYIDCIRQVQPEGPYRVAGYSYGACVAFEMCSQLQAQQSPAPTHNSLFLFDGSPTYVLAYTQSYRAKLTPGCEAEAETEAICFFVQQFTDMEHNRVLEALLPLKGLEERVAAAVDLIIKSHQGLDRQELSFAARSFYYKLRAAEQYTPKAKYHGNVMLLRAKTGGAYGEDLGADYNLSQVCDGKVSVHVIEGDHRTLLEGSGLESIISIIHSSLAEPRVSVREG

`Cc1c(-c2ccc(CC3CCN(C(=O)C4CC(F)(F)C4)CC3)cc2)cnc2ccccc12` [Example 14, (3,3-Difluorocyclobutyl)-{4-[4-(4-methylquinolin-3-yl)-benzyl]-piperidin-1-yl}-methanone] and `O=C(C1CC(F)(F)C1)N1CCC(Cc2ccc(-c3cnc4ccccc4c3Cl)cc2)CC1` [Example 21, {4-[4-(4-Chloroquinolin-3-yl)-benzyl]-piperidin-1-yl}-(3,3-difluorocyclobutyl)-methanone] fall in the same range of IC50: 1000 to 10000 nM for the first, 1000 to 10000 nM for the second.

`Cc1c(-c2ccc(CC3CCN(C(=O)[C@H]4CCCO4)CC3)cc2)cnc2ccccc12` [Example 15, {4-[4-(4-Methylquinolin-3-yl)-benzyl]-piperidin-1-yl}-(R)-tetrahydrofuran-2-yl-methanone] and `O=C([C@H]1CCCO1)N1CCC(Cc2ccc(-c3cnc4ccccc4c3Cl)cc2)CC1` [Example 22, {4-[4-(4-Chloroquinolin-3-yl)-benzyl]-piperidin-1-yl}-(R)-tetrahydrofuran-2-yl-methanone] fall in the same range of IC50: 1 to 99 nM for the first, 1 to 99 nM for the second.

`CCC(=O)N1CCC(C(F)(F)c2ccc(-c3cnc4ccccc4c3)cc2)CC1` [Example 16, 1-{4-[Difluoro-(4-quinolin-3-yl-phenyl)-methyl]-piperidin-1-yl}-propan-1-one] and `O=C(C1CC1)N1CCC(C(F)(F)c2ccc(-c3cnc4ccccc4c3)cc2)CC1` [Example 17, Cyclopropyl-{4-[difluoro-(4-quinolin-3-yl-phenyl)-methyl]-piperidin-1-yl}-methanone] fall in the same range of IC50: 100 to 999 nM for the first, 100 to 999 nM for the second.

`O=C([C@H]1CCCO1)N1CCC(C(F)(F)c2ccc(-c3cnc4ccccc4c3)cc2)CC1` [Example 18, {4-[Difluoro-(4-quinolin-3-yl-phenyl)-methyl]-piperidin-1-yl}-(R)-tetrahydrofuran-2-yl-methanone] and `O=C(c1ccc(-c2cnc3ccccc3c2)cc1)C1CCN(C(=O)[C@H]2CCCO2)CC1` [Example 49, [4-(4-Quinolin-3-yl-benzoyl)-piperidin-1-yl]-(R)-tetrahydrofuran-2-yl-methanone] fall in the same range of IC50: 1 to 99 nM for the first, 1 to 99 nM for the second.

`CCC(=O)N1CCC(Cc2ccc(-c3cnc4ccccc4c3Cl)cc2)CC1` [Example 19, 1-{4-[4-(4-Chloroquinolin-3-yl)-benzyl]-piperidin-1-yl}-propan-1-one] and `O=C(C1CC1)N1CCC(Cc2ccc(-c3cnc4ccccc4c3Cl)cc2)CC1` [Example 20, {4-[4-(4-Chloroquinolin-3-yl)-benzyl]-piperidin-1-yl}-cyclopropylmethanone] fall in the same range of IC50: 1 to 99 nM for the first, 1 to 99 nM for the second.

`CCC(=O)N1CCC(Cc2ccc(-c3ccc4cccnc4c3C)cc2)CC1` [Example 23, 1-{4-[4-(8-Methylquinolin-7-yl)-benzyl]-piperidin-1-yl}-propan-1-one] and `CCC(=O)N1CCC(Cc2ccc(-c3ccc4cccnc4c3Cl)cc2)CC1` [Example 29, 1-{4-[4-(8-Chloroquinolin-7-yl)-benzyl]-piperidin-1-yl}-propan-1-one] fall in the same range of IC50: 1 to 99 nM for the first, 1 to 99 nM for the second.

`Cc1c(-c2ccc(CC3CCN(C(=O)C4CC4)CC3)cc2)ccc2cccnc12` [Example 24, Cyclopropyl-{4-[4-(8-methylquinolin-7-yl)-benzyl]-piperidin-1-yl}-methanone] and `O=C(C1CC1)N1CCC(Cc2ccc(-c3ccc4cccnc4c3Cl)cc2)CC1` [Example 30, {4-[4-(8-Chloroquinolin-7-yl)-benzyl]-piperidin-1-yl}-cyclopropylmethanone] fall in the same range of IC50: 1 to 99 nM for the first, 1 to 99 nM for the second.

`Cc1c(-c2ccc(CC3CCN(C(=O)[C@H]4CCCO4)CC3)cc2)ccc2cccnc12` [Example 25, {4-[4-(8-Methylquinolin-7-yl)-benzyl]-piperidin-1-yl}-(R)-tetrahydrofuran-2-yl-methanone] and `O=C([C@H]1CCCO1)N1CCC(Cc2ccc(-c3ccc4cccnc4c3Cl)cc2)CC1` [Example 31, {4-[4-(8-Chloroquinolin-7-yl)-benzyl]-piperidin-1-yl}-(R)-tetrahydrofuran-2-yl-methanone] fall in the same range of IC50: 1 to 99 nM for the first, 1 to 99 nM for the second.

`CCC(=O)N1CCC(Cc2ccc(-c3cc4ccccc4cn3)cc2)CC1` [Example 26, 1-[4-(4-Isoquinolin-3-yl-benzyl)-piperidin-1-yl]-propan-1-one] and `O=C(C1CC1)N1CCC(Cc2ccc(-c3cc4ccccc4cn3)cc2)CC1` [Example 27, Cyclopropyl-[4-(4-isoquinolin-3-yl-benzyl)-piperidin-1-yl]-methanone] fall in the same range of IC50: 1000 to 10000 nM for the first, 1000 to 10000 nM for the second.

`O=C([C@H]1CCCO1)N1CCC(Cc2ccc(-c3cc4ccccc4cn3)cc2)CC1` [Example 28, [4-(4-Isoquinolin-3-yl-benzyl)-piperidin-1-yl]-(R)-tetrahydrofuran-2-yl-methanone] and `Cc1nccc2cc(-c3ccc(CC4CCN(C(=O)[C@H]5CCCO5)CC4)cc3)ccc12` [Example 37, {4-[4-(1-methylisoquinolin-6-yl)-benzyl]-piperidin-1-yl}-(R)-tetrahydro-furan-2-yl-methanone] fall in the same range of IC50: 1 to 99 nM for the first, 1 to 99 nM for the second.

`CCC(=O)N1CCC(Cc2ccc(-c3ccc4cccnc4c3OC)cc2)CC1` [Example 32, 1-{4-[4-(8-Methoxyquinolin-7-yl)-benzyl]-piperidin-1-yl}-propan-1-one] and `COc1c(-c2ccc(CC3CCN(C(=O)C4CC4)CC3)cc2)ccc2cccnc12` [Example 33, Cyclopropyl-{4-[4-(8-methoxyquinolin-7-yl)-benzyl]-piperidin-1-yl}-methanone] fall in the same range of IC50: 1 to 99 nM for the first, 1 to 99 nM for the second.

`COc1c(-c2ccc(CC3CCN(C(=O)[C@H]4CCCO4)CC3)cc2)ccc2cccnc12` [Example 34, {4-[4-(8-Methoxyquinolin-7-yl)-benzyl]-piperidin-1-yl}-(R)-tetrahydrofuran-2-yl-methanone] and `CC(c1ccc(-c2ccc3cccnc3c2)cc1)C1CCN(C(=O)[C@H]2CCCO2)CC1` (stereo partly drawn) [Example 51, {4-[1-(4-Quinolin-7-yl-phenyl)-ethyl]-piperidin-1-yl}-(R)-tetrahydrofuran-2-yl-methanone] fall in the same range of IC50: 1 to 99 nM for the first, 1 to 99 nM for the second.

`CCC(=O)N1CCC(Cc2ccc(-c3ccc4c(C)nccc4c3)cc2)CC1` [Example 35, 1-{4-[4-(1-methylisoquinolin-6-yl)-benzyl]-piperidin-1-yl}-propan-1-one] and `Cc1nccc2cc(-c3ccc(CC4CCN(C(=O)C5CC5)CC4)cc3)ccc12` [Example 36, Cyclopropyl-{4-[4-(1-methyl-isoquinolin-6-yl)-benzyl]-piperidin-1-yl}-methanone] fall in the same range of IC50: 1 to 99 nM for the first, 1 to 99 nM for the second.

First: CCC(=O)N1CCC(C(C)c2ccc(-c3cnc4ccccc4c3)cc2)CC1 (stereo not drawn) [Example 39, 1-(4-(1-(4-(quinolin-3-yl)phenyl)ethyl)piperidin-1-yl)propan-1-one]
Second: CCC(=O)N1CCC(C(N)c2ccc(-c3cnc4ccccc4c3)cc2)CC1 (stereo not drawn) [Example 43, 1-{4-[amino-(4-quinolin-3-yl-phenyl)-methyl]-piperidin-1-yl}-propan-1-one]
The IC50 of the first is lower: 1 to 99 nM for the first, 1000 to 10000 nM for the second. The first is the more potent here.

`CCC(=O)N1CCC(C(C)c2ccc(-c3ccc4cccnc4c3)cc2)CC1` (stereo not drawn) [Example 42, 1-{4-[1-(4-Quinolin-7-yl-phenyl)-ethyl]-piperidin-1-yl}-propan-1-one] and `CCC(=O)N1CCC(C(CC)c2ccc(-c3cnc4ccccc4c3)cc2)CC1` (stereo not drawn) [Example 47, 1-{4-[1-(4-Quinolin-3-yl-phenyl)-propyl]-piperidin-1-yl}-propan-1-one] fall in the same range of IC50: 1 to 99 nM for the first, 1 to 99 nM for the second.

`O=C(C1CC1)N1CCC(C2(c3ccc(-c4cnc5ccccc5c4)cc3)CC2)CC1` [Example 44, Cyclopropyl-{4-[1-(4-quinolin-3-yl-phenyl)-cyclopropyl]-piperidin-1-yl}-methanone] and `O=C(C1CC1)N1CCC(C2(c3ccc(-c4ccc5cccnc5c4)cc3)CC2)CC1` [Example 45, Cyclopropyl-{4-[1-(4-quinolin-7-yl-phenyl)-cyclopropyl]-piperidin-1-yl}-methanone] fall in the same range of IC50: 100 to 999 nM for the first, 100 to 999 nM for the second.

First: CCC(=O)N1CCC(/C(=N\OC)c2ccc(-c3cnc4ccccc4c3)cc2)CC1 [Example 46, 1-{4-[[(E:Z)-Methoxyimino]-(4-quinolin-3-yl-phenyl)-methyl]-piperidin-1-yl}-propan-1-one]
Second: CCC(=O)N1CCC(C(NC(C)=O)c2ccc(-c3cnc4ccccc4c3)cc2)CC1 (stereo not drawn) [Example 53, N-[(1-Propionylpiperidin-4-yl)-(4-quinolin-3-yl-phenyl)-methyl]-acetamide]
The IC50 of the first is lower: 1 to 99 nM for the first, 1000 to 10000 nM for the second. The first is the more potent here.

First: CCC(=O)N1CCC(C(c2ccc(-c3cnc4ccccc4c3)cc2)C2CC2)CC1 (stereo not drawn) [Example 48, 1-{4-[Cyclopropyl-(4-quinolin-3-yl-phenyl)-methyl]-piperidin-1-yl}-propan-1-one]
Second: CC(c1ccc(-c2cnc3ccccc3c2)cc1)C1CCN(C(=O)[C@H]2CCCO2)CC1 (stereo partly drawn) [Example 52, {4-[1-(4-Quinolin-3-yl-phenyl)-ethyl]-piperidin-1-yl}-(R)-tetrahydrofuran-2-yl-methanone]
The IC50 of the first is higher: 100 to 999 nM for the first, 1 to 99 nM for the second.
